# Reference: patent US7563862B2, “Neural regeneration peptides and methods for their use in treatment of brain damage” (Neuren Pharmaceuticals Limited, priority 2001, dated 2009)
# Ends that are not written are not given here.
# Assays:
# [1] = tested on: cerebellar microexplants; experiment: cerebellar microexplant neuronal migration assay; type: cell-based, rat
# Excerpt: Another assay of this invention includes embodiments comprising cerebellar microexplants. Laminated cerebellar cortices of the two hemispheres were explanted from a P-4 Long Evans rat, cut into small pieces in GBSS with 0.65% D(+)glucose solution, and triturated by a 0.4 mm gauge needle and subsequently pressed through a 125 μm pore size sieve. The obtained microexplants were centrifuged (200×g) 2 times for a medium exchange into serum-free BSA-supplemented START V-medium (Biochrom). Finally, the microexplants were reconstituted in 500 μl STARTV-medium. For culturing, 38 μl of the cell suspension and 2 μl of migration-inducing factor (NRP-1) in 0.01 M sodium phosphate (pH 7.3) or phosphate alone (control) was incubated for 3 hours on a poly-D-lysine-coated cover slip in a 35 mm Petri dish under an atmosphere comprising 5% CO2 in air and 100% humidity at 34° C. Subsequently, 1 ml of STARTV-medium was added, and the cultures were evaluated after 2-3 days of culture (for example, see FIG. 2).
# For immunohistochemistry and neuronal migration experiments, cerebellar microexplants were fixed after 2-3 days in culture after the following regime: microexplants were fixed by 2-minute, serial treatment with 0.4%; 1.2%; 3% paraformaldehyde/0.25% glutaraldehyde, respectively, followed by a 5 min incubation in 4% paraformaldehyde/0.25% glutaraldehyde in 0.1 M sodium phosphate (pH 7.4). MAP-2 was detected using the biotin-streptavidin/Cy3 detection system as described under the immunohistochemistry section of the thalamocortical OTCs.
# Microexplants having a diameter between 100-120 μm were chosen for statistical analysis. For quantitative analysis of neuronal migration, an optical device having 10 consecutive rings of 100 μm diameter was applied over the microexplants. All neurons that had migrated after 48 h of culture were counted. Neurons located between circles 1 to 10 (0.1-1 mm) around the margin of the respective microexplant (see FIG. 2) were counted, and each circle was expressed as a percentage of total migrating cells. The unpaired Student's t-test was used for significance analysis. Results were given as mean values±standard deviation.
# [2] = tested on: mouse neural stem cells; experiment: haptotactic migration assay, mouse neural stem cells; type: cell-based
# Procedure: (§1) NRPs were tested for migration-inducing/chemoattractive activity on mouse neural stem cells, EGF-dependent immortalized mouse neural stem cell line MEB5 and wild-type PC-12 cells in a haptotactic migration assay as described below.
# (§2) Initial NRP Coating. Control wells of Transwell plates (Coming) with 12 μm pore size were coated in 1.5 ml of the BSA/PBS vehicle. Remaining plates were coated using various concentrations of NRPs ranging between 1-100 ng/ml (prepared in PBS containing 10 ug/ml BSA). The plates were then incubated at 37° C. for 1 hr to coat. Wells were then rinsed 2× with 1 ml sterile PBS.
# (§3) Laminin ([…]) for MEB-5 cells, PDL (50 μg/ml)+Matrigel for mouse primary stem cells and fibronectin (25 ug/ml)+matrigel for PC-12 cells were used as extracellular matrix (ECM) coating for the cells. All ECM compounds were diluted in PBS. 1.5 ml of the ECM per well was incubated for 2 hrs at room temperature. The wells were then rinsed once with Iml serum-free media (e.g. NB/B27) followed by 1 ml PBS wash.
# A 5 ug/mL PDL/PLL mixture (in PBS) was used to coat inserts. Subsequently the inserts were rinsed with MilliQ water.
# Transferring to Media and Cell Seeding: Appropriate medium (MEB-5 cells: DMEM-high glucose+N2 (growth medium supplement from Invitrogen)+10 ng/biotin+2 mM L-glutamine, primary stem cells: NSA-medium from Euroclone and for PC-12 cells: NB/B27 medium) was transferred into the 12-well plates. […] Plates were fixed at 1-2 days in vitro (DIV).
# Fixation: Inserts were discarded and wells fixed in successive dilutions of PFA (0.4, 1.2, 3 and 4%) for 3-5min in each dilution. […] The wells were rinsed and stored in PBS until counting.
# A haptotactic migration assay was performed according to the description of Example 10 using rat NRP-9SD (SEQ ID NO:34) (4 nM) and mouse NRP-7SW (SEQ ID NO:24) (0.4 nM) as attractants in a Boyden chamber
# [3] = tested on: wild-type PC-12 cells; experiment: haptotactic migration assay, PC-12 cells; type: cell-based; settings: 1 ng/ml coating followed by matrigel/PDL, 100,000 cells
# Procedure: as §1, §2, §3
# (§4) A 5 ug/mL PDL/PLL mixture (in PBS) was used to coat inserts. Subsequently the inserts were rinsed with MilliQ water. […]
# [4] = tested on: mouse forebrain neural stem cells; experiment: neurosphere expansion assay, shift from symmetric to asymmetric division of neural stem cells; type: cell-based; settings: nanomolar concentrations
# Excerpt: To determine whether NRPs could induce a shift of cells within neurospheres from symmetric (two stem cells, both stem cells) to asymmetric division of neural stem cells (1 stem cell, 1 neuronal progenitor or neuroblast cell), as has been described for erythropoietin (EPO) by Shingo et al. (2001), neurospheres were dissociated by trituration and seeded for expansion at a density of 200,000 cells/well in 6 well plates in NSA medium with EGF only, EGF plus varying concentrations of an NRP, or EGF plus 10 U/ml EPO. One half of the medium with fresh NRP compound was exchanged every other day. After 7 days the cells from the neurospheres were plated. In the presence of EGF, cells retain symmetric cell division. With the removal of EGF, cells begin to differentiate (asymmetric cell division). Subsequently, the cells were subjected to a differentiation assay as described below, with the exception that bFGF was not added to the plating medium for the initial 24 h and differentiation for 7 days was allowed in control medium without NRPs or other compounds. In cells that had never been exposed to an NRP, the numbers of neuroblast cells were lower than in cells that had been exposed to an NRP or EPO. Therefore, NRPs can increase the differentiation of undifferentiated stem cells into neuroblast cells.
# [5] = tested on: MEB-5 cells; experiment: haptotactic migration assay, MEB-5 cells; type: cell-based, mouse; settings: 1 ng/ml coating, 200,000 cells
# Procedure: as §1, §2, §3, §4
substance,measurement,setting,value
"NRP-1: rat 16 amino acid neural regeneration peptide purified from hippocampal OTC supernatant, Tyr Asp Pro Glu ... Cys His-NH2 (YDPEAASAPGSGNPCH-NH2)",concentration sufficient to induce significantly enhanced migration of neurons,[1],3 nM
same,migrating cerebellar cells distributed between 400-500 μm from microexplant margin,"[1]; 3 nM, 2 days of culture",7.3±2.8%
same,migrating cerebellar cells distributed between 500-600 μm from microexplant margin,"[1]; 3 nM, 2 days of culture",13.2±13.9%
same,distance from the cerebellar margin where most of the cells were distributed,[1]; two days after administration,200-300 μm
same,distance from the margin of a significant population of cells,[1]; two days after administration,500-600 μm
"SEPEARRAPGRKGGVVCASLAADW-NH2 [NRP-7 segment SW, 24-mer form of mouse NRP-7]",more NSCs attracted to the culture dish bottom,[2]; 0.4 nM,2 fold
same,more E-14 cell density compared with BSA-vehicle,"[2]; 10 ng/ml coating, 400,000 cells",35%
same,potency relative to SDF-1,[2]; SDF-1 100 nM vs NRP-7SW 0.2 nM,about 500 times
same,more PC-12 cells migrated compared with BSA vehicle,[3],333%
"KDPEARRAPGSLHPCLAAS-NH2 [NRP-2 segment KS, 19-mer fragment of NRP-2]",production of neuronal progenitors,[4],promoted the production of neuronal progenitors at the expense of multipotent stem cells
same,more MEB-5 cells migrated compared with BSA-vehicle,[5],109%
